Reference: BindingDB's records for doi:10.1016/j.ejmech.2011.02.067 (University of Lisbon, 2011)

Assay: Inhibition of human recombinant caspase-3 expressed in Saccharomyces cerevisiae CG379 assessed as growth stimulation after 2 days

SMILES: CC(C)[C@H](NC(=O)OCc1ccccc1)C(=O)N[C@H](C=CS(C)(=O)=O)CC(=O)O [(S)-3-((S)-2-(benzyloxycarbonylamino)-3-methylbutanamido)-5-(methylsulfonyl)pent-4-enoic acid]
- IC50: 35.3 µM
